We go through 8 molecules from US6649797B2, “Compounds and methods of use to treat infectious diseases” (The Picower Institute for Medical Research, priority 1996, dated 2003).

Like-named read-outs stand apart in the source and are kept apart here. Some results are limits rather than exact numbers.

A short description of data set [1]: Toxicity in mice, median lethal dose by intraperitoneal injection. Conditions: for LD50: mouse, in vivo, ip, read-out: LD50 ± standard deviation. It is filed as in vivo, mouse. How it is done: The doses of compounds of the invention found to be lethal to 50% of the mice (LD50) were determined by intraperitoneal injection of groups of five animals with increasing doses of each compound. CNI-0294 was administered from 0, 2, 10, 20, 40, 80, 160, 320, 640, 1280 mg/kg in 0.5 ml of water/HCl; CNI-1594 at 0, 2.4, 5, 10, 20, 40, 80 mg/kg in 0.5 ml of water/HCl; CNI-1794 at 0, 20, 50, 80 mg/kg in 0.5 ml of water/HCl; and CNI-1894 at 0, 10, 20, 40, 80, 240, 480, 960 mg/kg in water/HCl. […] The percentage of animals in each group which died were utilized to calculate the LD50 by non-linear curve fitting with the Enzfit software (Elsevier Bioscience; Cambridge, UK) programmed with the Chou equation (Chou 1976, J Theor Biol 39:253-276)).

For data set [2], the system named is HIV-1. Description: HIV-1 production in cultured monocytes at fixed 100 nM. It is filed as cell-based. The following applies: monocytes infected 10 days prior to assay (10 ng p24/10^6 cells), percentage of untreated control. As to the method:
Alternatively, the compounds may all be compared for inhibition of HIV replication at a fixed concentration. Presented in Table II are compounds that were used at a concentration of 100 nM to inhibit the production of HIV-1 in cultured monocytes infected with HIV-1 10 days prior to assay (10 ng of p24/10^6 cells). The production of HIV-1 in each treated culture is reported as percentage of untreated control.

Data set [3] can be described thus: Pharmacokinetics in mice (plasma, HPLC). The class given is in vivo, mouse.
Experimental: Standard addition curves for each test compound were constructed by adding increased amounts of drug to mouse or human A^+ plasma (Long Island Blood Services; Melville, N.Y). […] The column was washed with 1.0 ml of water and then eluted with 1.0 ml of 10 mM tetramethylammonium chloride/10 mM heptane sulfonate/4.2 mM H3PO4/95% CH3CN/5% H2O (Buffer C). The eluted sample was reduced to dryness in a rotary evaporator and resuspended in 1.0 ml Buffer A.
Two hundred μl of the resuspended sample was injected onto a Hewlett-Packard model 1090 high performance liquid chromatography system (HPLC)(Wilmington, Del.) equipped with a photodiode array ultraviolet/visible spectrophotometric detector, autosampler, and Chemstation operating software. The column used was a 250×4.6 mm Zorbax RX-C8 column (Mac-Mod Analyticals; Chadd's Ford, Pa.) kept at room temperature and run at 1.5 ml/min. The mobile phase used was Buffer A and 10 mM tetramethylammonium chloride/10 mM heptane sulfonate/4.2 mM H3PO4/75% CH3CN/25% H2O (Buffer B), with all runs initiated at 10% Buffer B. A linear 30 min gradient to 60% Buffer B was then performed, followed by a 4 min reverse gradient to initial conditions.
Female ND4 Swiss Webster mice (21-24 g) were obtained from Harlan Sprague Dawley (Indianapolis, Ind.) and randomly placed in groups of five in cages with free access to food and water. […] The other CNI compounds were administered intraperitoneally or by oral gavage as a solution in water titrated with sufficient HCl to dissolve the drug. At various time points, ranging from 5 min to 4 days, a single group of animals was euthanized by carbon dioxide inhalation and bled by cardiac puncture using heparin as an anticoagulant. The blood from the five mice in the group was pooled and centrifuged at 14000× g for 10 min. The volume of plasma was measured, and equal volume of Buffer A added, and the mixture extracted and analyzed as described above, except that the dried eluates were resuspended in 200 μl Buffer A and 100 μl was injected onto the high performance liquid chromatography (HPLC) system.
The area under the plasma concentration-time curve (AUC) was determined, and bioavailability was measured as AUCoral/AUCi.p. A and B represent the zero time intercept of the distribution and elimination phases respectively, and a and β the respective slopes of the phases multiplied by 2.303. The t/2α and t1/2β are calculated half-lives of the drug in each phase (0.693/α and 0.693/β respectively). The volume of distribution (VD) was calculated as dose/B, and the total clearance rate (Cltot) calculated as β*VD. Cmax and tmax are the maximal plasma concentration and time of this measurement, respectively.
Data set [4] in a line: In vitro metabolism with mouse liver post-mitochondrial supernatant and NADPH. It is filed as in vitro ADME. As to the method:
Several female ND4 Swiss Webster mice were euthanized by carbon dioxide inhalation and the livers excised and rinsed with ice cold phosphate buffered saline (pH 7.4). The livers were minced, gently homogenized in 50 mM phosphate buffer (pH 7.4) with a Dounce homogenizer, and centrifuged at 9600× g for 20 min. The post-mitochondrial supernatant was kept, glycerol added to 20%, and frozen at −70° C in 1.0 ml aliquots until used. For each incubation, 1.0 ml of a 1.0 mg/ml drug solution was added to 3.0 ml of 50 mM phosphate buffer (pH 7.4), 1.0 ml of 2 mg/ml NADPH in 50 mM phosphate (pH 7.4), and 1.0 ml of the post-mitochondrial supernatant. Five hundred μl of each incubate was then immediately transferred to an ice-cold tube to provide the zero-time sample, and addition 500 μl aliquots removed to ice-cold tubes at 8, 15, 30, and 60 min. The samples were then extracted, and analyzed by HPLC as described in section 7.1. Control incubations were also performed where drug or post-10 mitochondrial supernatant was omitted. […] Peaks in the CNI compound incubations which increased over time, and were not present in control samples lacking the enzyme preparation were treated as putative metabolites.

A further data set concerns Plasmodium falciparum. Description: Antimalarial activity in vitro, [3H]-hypoxanthine incorporation. The class given is cell-based. Conditions: for IC50: Plasmodium falciparum. The text has this:
The antimalarial properties of the compounds of the invention can be analyzed by techniques, assays and experimental animal models well known in the art. For example, the inhibition of growth of Plasmodium falciparum in vitro by the compounds may be assessed by the hypoxanthine-incorporation method (Desjardins et al., 1979, Antimicrob. Ag. Chemother. 16:710-718). […] The in vivo efficacy of the compounds can also be tested in mouse models in which parasitemia is enumerated following administration of the compound (Ager, A. L. 1984, Rodent malaria models, pp 225-264. In Handbook of Experimental Pharmacology vol. 68, Antimalarial Drugs, Peters and Richards eds, Springer-Verlag, Berlin).
The antimalarial activity of the compounds was determined essentially as described in Desjardins et al. supra. Fifty μl of various concentrations of a compound of the invention, chloroquine, or pyrimethamine were added to the wells of microtiter plates, followed by 200 μl of ring-stage, synchronized, P. falciparum-infected erythrocytes (final hematocrit=1.5%, final parasitemia=1-5%). The plates were incubated for 24 hr in a candle jar kept at 37° C., and then 25 μl of [^3H]-hypoxanthine (Amersham, Arlington Heights, ILL.; 2.5 μl Ci/well) was added. The plates were then incubated for a further 24 hr, before harvesting onto Unifilter-96 GF/C filter-microplates (Packard; Meriden, Conn.). Twenty-five μl of Microscint scintillation fluid (Packard) was added to each well of the filter-microplate, which was subsequently counted in a Top-count microplate scintillation counter (Packard). The percent of [^3H]-hypoxanthine uptake relative to control infect-erythrocytes was used to determine the IC50 value for the compounds by non-linear regression for LD50 determination.

A further data set concerns HIV-1ADA. Put plainly: Anti-HIV activity in primary human monocytes, day 9 (Table IX, FIG. 12C). It is filed as cell-based. The following applies: Human immunodeficiency virus 1, Monocyte, 216 h; day 9 after infection; >10 μM = 50% inhibition not achieved at maximal concentration; read-out: IC50. As to the method:
Monocytes infected with HIV-1ADA were cultured in the presence of CNI-H0294 and CNI-H3094 in various concentrations. Nine days after infection, RT activity in culture supernatants was quantified. The results are presented as percent of total RT activity in untreated cultures (control). Three independent samples were assayed for each drug concentration, and the standard deviation was less than 15%.
[…] A 50% inhibitory concentration (IC50) was determined at day 9 after infection.

Data set [5] has as its system HIV-1. Put plainly: AZT and Compound No. 2 in combination, HIV-1 infected monocyte cultures, RT activity. Conditions: for reverse transcriptase activity in supernatant: (−) No. 2. It is filed as cell-based. How it is done:
Primary human monocytes were obtained from peripheral blood by Ficoll-Hypaque centrifugation and adherence to plastic as described previously. Gartner S. P., et al., 1986, Science 233:215. Briefly, after Ficoll-Hypaque (Pharmacia) separation, PBMCs were washed 4 times with DMEM (the last wash was done at 800 rpm to remove platelets) and resuspended in monocyte culture medium [DMEM supplemented with 1 mM glutamine, 10% heat-inactivated human serum, 1% penicillin+streptomycin mixture (Sigma)] at a density of 6×10^6 cells/ml. Cells were seeded in 24-well plates (1 ml per well) and incubated for 2 h at 37° C, 5% CO2. Following incubation, cells were washed 3 times with DMEM to remove non-adherent cells and incubation was continued in monocyte culture medium supplemented with 250 U/ml human M-CSF (Sigma). Cells were allowed to mature for 7 days prior to infection with the monocyte-tropic strain, HIV-1ADA. Nuovo, G. J., et al., 1992, Diagn. Mol. Pathol. 1:98. Two hours after infection, cells were washed with medium and cultured in RPMI supplemented with 10% human serum. In experiments where PCR analysis was performed, virus was pretreated with RNAse-free DNAse (Boehinger-Mannheim) for 2 h at room temperature and then filtered though a 0.2 μm pore nitrocellulose filter prior to infection.
For the reverse transcriptase (RT) assay, 10 μl of culture supernatant was added to 40 μl of reaction mixture (final composition was 50 mM Tris-HCl, pH 7.8; 20 MM KCl; 5 MM MgCl2; 1 mM DTT; 0.1% Triton X-100; 0.2 OD/ml polyA; 0.2 OD/ml oligo(dT)12-18; and 40 μCi/ml ^3H-dTTP (76 Ci/mmol, DuPont) and incubated 2 hr at 37° C. 5 μl of the reaction mixture was then spotted onto the DE 81 (Whatman) paper. Paper was air dried and washed 5 times with 5% Na2HPO4, followed by rinsing with distilled water. After air drying, paper was put on a Flexi Filter plate (Packard), covered with scintillation fluid and counted in a Top Count Microplate Counter (Packard). Results are expressed as counts per minute in 1 ml of supernatant (cpm/ml).
In view of these premises, the effects on HIV-1 replication in human monocyte cultures of the various concentrations of AZT, alone or in combination with 100 nM Compound No. 2, were tested using the protocols of Sections 6.2.1 and 6.2.2. Drugs were added to the monocyte cultures together with HIV-1 at about 10^5 TCID/ml. The concentration of drugs was maintained on refeeding. HIV-1 replication was assessed by assay of the supernatant for reverse transcriptase activity. The results are expressed as mean ± std. dev. (cpm×10^−3) in Table V.

Where [6] appears, read: female, ND4 Swiss Webster, mouse, plasma, ip, 50 mg/kg, vehicle water.
Setting [7] is: mouse, i.p., 50 mg/kg, vehicle water.

The LD50 is the dose at which mortality reaches 50%. Turning to `CC(=O)c1ccc(Nc2cc(C)nc(N)n2)cc1` [Compound No. 17, 2-amino-4-(4-acetylphenyl)amino-6-methylpyrimidine], the LD50 in data set [1] was found to be 48.93 ± 0.12 mg/kg.
Broadly, the AUC is concentration integrated over time. Broadly, the Cmax is the highest concentration seen after dosing. Broadly, the Tmax is the time at which the peak concentration occurs. Broadly, the IC50 is the concentration at which inhibition is half-maximal. In the case of `CC(=O)c1cc(N)cc(C(C)=O)c1` [CNI-1894, 3,5-diacetylaniline], the “Viral Production” value in the data set on HIV-1 [2] came to 20%. Besides, in data set [3] (setting [6]), the exposure (AUC) turned out to be 20200 ng·h/mL and the peak level (Cmax) was 13400 ng/mL. Besides, in data set [3] (female, ND4 Swiss Webster, plasma, ip, mouse, i.p., 50 mg/kg, vehicle water, read-out: tmax (converted)), the Tmax was 5 min. The maximal plasma level in data set [3] (mice, single i.p. injection (50 mg/kg; CNI-1594 20 mg/kg)) is 13.43 µg/mL. In data set [3] (setting [7]), the “A (zero time intercept of the distribution phase)” value came out at 14.93 µg/mL, the “B (zero time intercept of the elimination phase)” value was 0.15 µg/mL, the Cltot was 3.30 mL/min and the t1/2α was 34.8 min. In data set [3] (setting [7]), this molecule yielded a t1/2β of 1386 min, a α of 1.19 h⁻¹ and a β of 0.03 h⁻¹. In data set [1], the “visible signs of toxicity” value is “died 2-3 days post injection, and showed no sign of any immediate toxicity”; the 50% lethal dose (LD50) amounted to 258.6 ± 1.37 mg/kg. Besides, in data set [4], the metabolites produced entry was “one minor and one major metabolite”. Besides, in data set [4] (60 min incubation), the “metabolic conversion (drug altered, as judged by peak area)” value was found to be 17.28%. In addition, in the data set with Plasmodium falciparum (clone Dd2, highest concentration tested 200 μM), the antimalarial activity entry is “inactive at the highest concentration tested”. The IC50 in the data set with HIV-1ADA is over 10000 nM.
Consider `CCc1nc(N)nc(N)c1-c1ccc(Cl)cc1` [Pyrimethamine], for which the IC50 in the data set on Plasmodium falciparum (DD2, clone Dd2, ± standard deviation, read-out: IC50) came out at 104000 ± 9790 nM; with Plasmodium falciparum (clone W2mef, ± standard deviation, read-out: IC50), 17800 ± 13500 nM.
As to `CC(=O)c1cccc(C(C)=O)c1N` [2,6-diacetylaniline], the “Viral Production” value with HIV-1 [2] was determined as 28%.
Still for that read-out and setting: the result for `CC(=O)c1cc(C(C)=O)cc(N(C)C)c1` [N,N-dimethyl-3,5-diacetylaniline] reads 25%; that for `CC(=O)c1cncc(C(C)=O)c1` [3,5-diacetylpyridine], 58%.
For `Cc1cn([C@H]2C[C@H](N=[N+]=[N-])[C@@H](CO)O2)c(=O)[nH]c1=O` [AZT], the “reverse transcriptase activity in supernatant” value in the data set with HIV-1 [5] (day-7, 10 pM AZT, mean ± std. dev.) is reported as 0.92 ± 0.21 cpm×10^−3; with HIV-1 [5] (day-7, 100 pM AZT), 0.79 ± 0.14 cpm×10^−3; with HIV-1 [5] (day-7, 1 nM AZT), 0.60 ± 0.28 cpm×10^−3; in the data set on HIV-1 [5] (day-7, 10 nM AZT), 0.05 ± 0.02 cpm×10^−3; in the data set on HIV-1 [5] (day-11, 10 pM AZT) it was 1.63 ± 0.81 cpm×10^−3; in the data set on HIV-1 [5] (day-11, 100 pM AZT), 1.34 ± 0.59 cpm×10^−3. In addition, the “reverse transcriptase activity in supernatant” value in the data set with HIV-1 [5] (day-11, 1 nM AZT) is listed as 1.07 ± 0.49 cpm×10^−3; in the data set on HIV-1 [5] (day-11, 10 nM AZT), 0.08 ± 0.03 cpm×10^−3. For the same molecule, in the data set with HIV-1 [5] (day-11, 10 pM AZT alone), the “reduction in RT activity” value is given as “about 20%”.
For `CCN(CC)CCCC(C)Nc1ccnc2cc(Cl)ccc12` (centres unmarked) [Chloroquine], the IC50 with Plasmodium falciparum (DD2, clone Dd2, Chloroquine column, unit inferred) came out at 123 ± 7.26 nM; in the data set on Plasmodium falciparum (FCR3, clone FCR-3, Chloroquine column, unit inferred), 105 ± 9.98 nM; with Plasmodium falciparum (HB3, clone HB3, Chloroquine column, unit inferred) it was 6.73 ± 0.16 nM; with Plasmodium falciparum (clone D10, Chloroquine column, unit inferred) it was 27 ± 2.42 nM; in the data set on Plasmodium falciparum (clone W2mef, Chloroquine column, unit inferred), 144 ± 13.3 nM.
